According to ChEMBL document CHEMBL6134778, “Spiro-Azetidine Oxindoles as Long-Acting Injectables for Pre-Exposure Prophylaxis against Respiratory Syncytial Virus Infections” (J Med Chem, 2024):
Converted amounts (≈) assume the structure as drawn.

Key:
[1] = Clearance in Sprague-Dawley rat at 1 mg/kg, iv by LC-MS/MS analysis; type: ADME, organism-based; details: in vivo
[2] = Clearance in Beagle dog at 0.25 mg/kg, iv by LC-MS/MS analysis; type: ADME, organism-based, Canis lupus familiaris; details: in vivo
[3] = tested on: Respiratory syncytial virus; assay: Antiviral activity against RSV B/05-036549 harboring eGFP infected in human HeLa cells assessed as reduction in virus replication measured after 3 days by laser microscopy; type: functional, organism-based; details: B/05-036549, HeLa, 72 h
[4] = Volume of distribution at steady state in Beagle dog at 0.25 mg/kg, iv by LC-MS/MS analysis; type: ADME, organism-based, Canis lupus familiaris; details: in vivo, read-out: Vdss
[5] = tested on: Respiratory syncytial virus; assay: Antiviral activity against RSV A2 harboring V76A/Y117H/N517I/L172Q mutant infected in human HeLa cells assessed as reduction in virus replication measured after 3 days by laser microscopy; type: functional, organism-based; details: 72 h
Canis familiaris [6] = assay: Particle size for the 50th percentile of the cumulative volume distribution in Beagle dog at 20 mg/kg, IM […]; type: ADME, organism-based, Canis lupus familiaris; details: in vivo
[7] = tested on: Respiratory syncytial virus; assay: Antiviral activity against RSV A/07-041911 harboring eGFP infected in human HeLa cells assessed as reduction in virus replication measured after 3 days by laser microscopy; type: functional, organism-based; details: A/07-041911, HeLa, 72 h
[8] = tested on: Respiratory syncytial virus; assay: Antiviral activity against RSV A Long harboring eGFP infected in human HeLa cells assessed as reduction in virus replication measured after 3 days by laser microscopy; type: functional, organism-based; details: 72 h
[9] = tested on: Respiratory syncytial virus; assay: Antiviral activity against RSV rgRSV224 (A2-GFP) harboring eGFP infected in human HeLa cells assessed as reduction in virus replication measured after 3 days by laser microscopy; type: functional, organism-based; details: 72 h
[10] = tested on: Respiratory syncytial virus; assay: Antiviral activity against RSV A/11-014288 harboring eGFP infected in human HeLa cells assessed as reduction in virus replication measured after 3 days by laser microscopy; type: functional, organism-based; details: A/11-014288, HeLa, 72 h
[11] = tested on: Respiratory syncytial virus; assay: Antiviral activity against RSV A2 harboring eGFP infected in human HeLa cells assessed as reduction in virus replication by measuring 3X protein-adjusted effective concentration for 90% inhibition measured after 3 days in presence of human serum albumin and alpha(1)-acid glycoprotein by laser microscopy; type: functional; details: time 3 day
[12] = Bioavailability in Beagle dog assessed as dose released at 20 mg/kg, IM by LC-MS/MS analysis; type: ADME, organism-based, Canis lupus familiaris; details: in vivo
Canis familiaris [13] = assay: Release rate constant in Beagle dog at 20 mg/kg, IM by LC-MS/MS analysis; type: ADME, organism-based, Canis lupus familiaris; details: in vivo
[14] = tested on: Respiratory syncytial virus; assay: Antiviral activity against RSV A2 harboring eGFP infected in human HeLa cells assessed as reduction in virus replication measured after 3 days by laser microscopy; type: functional, organism-based; details: 72 h
[15] = Thermodynamic solubility in aqueous buffer at pH 7 incubated for 24 hrs by UPLC analysis; type: physicochemical; details: read-out: Therm_solubility
[16] = Intrinsic clearance in human hepatocytes assessed per million cells measured after 6 hrs using tritiated compound by LC-MS/MS analysis; type: ADME, cell-based, Hepatocyte; details: read-out: CLH
[17] = tested on: Respiratory syncytial virus; assay: Antiviral activity against RSV B/03-034613 harboring eGFP infected in human HeLa cells assessed as reduction in virus replication measured after 3 days by laser microscopy; type: functional, organism-based; details: B/03-034613, HeLa, 72 h
[18] = tested on: Respiratory syncytial virus; assay: Antiviral activity against RSV B/17-058221 harboring eGFP infected in human HeLa cells assessed as reduction in virus replication measured after 3 days by laser microscopy; type: functional, organism-based; details: B/17-058221, HeLa, 72 h
[19] = tested on: Respiratory syncytial virus; assay: Antiviral activity against RSV A/12-049454 harboring eGFP infected in human HeLa cells assessed as reduction in virus replication measured after 3 days by laser microscopy; type: functional, organism-based; details: A/12-049454, HeLa, 72 h
[20] = tested on: Respiratory syncytial virus; assay: Antiviral activity against RSV A2 infected in PO or IM dosed BALB/c mouse assessed as reduction in viral titer in BALF by plaque assay; type: functional, organism-based; details: human respiratory syncytial virus
[21] = tested on: Respiratory syncytial virus; assay: Antiviral activity against RSV A Memphis 37 harboring eGFP infected in human HeLa cells assessed as reduction in virus replication measured after 3 days by laser microscopy; type: functional, organism-based; details: A Memphis 37, HeLa, 72 h
[22] = tested on: Respiratory syncytial virus; assay: Antiviral activity against RSV A/13-000323 harboring eGFP infected in human HeLa cells assessed as reduction in virus replication measured after 3 days by laser microscopy; type: functional, organism-based; details: A/13-000323, HeLa, 72 h
[23] = tested on: Respiratory syncytial virus; assay: Antiviral activity against RSV B pSynk-18537F (18537-mKate2) harboring eGFP infected in human HeLa cells assessed as reduction in virus replication measured after 3 days by laser microscopy; type: functional, organism-based; details: 72 h
[24] = Intrinsic clearance in human liver microsomes assessed per mg protein at 1 uM measured after 60 mins in presence of NADPH by LC-MS/MS analysis; type: ADME, Microsome; details: read-out: CLH
[25] = tested on: Respiratory syncytial virus; assay: Antiviral activity against RSV pSynk-A2F (A2-mKate2) harboring eGFP infected in human HeLa cells assessed as reduction in virus replication measured after 3 days by laser microscopy; type: functional, organism-based; details: 72 h
[26] = Bioavailability in Sprague-Dawley rat assessed as dose released at 50 mg/kg, IM measured over 12 weeks by LC-MS/MS analysis; type: ADME, organism-based; details: in vivo
Rattus norvegicus [27] = assay: Release rate constant in Sprague-Dawley rat at 50 mg/kg, IM measured over 12 weeks by LC-MS/MS analysis; type: ADME, organism-based; details: in vivo, 2016 h
[28] = tested on: Respiratory syncytial virus; assay: Antiviral activity against RSV B Wash/18537 harboring eGFP infected in human HeLa cells assessed as reduction in virus replication measured after 3 days by laser microscopy; type: functional, organism-based; details: B Wash/18537, HeLa, 72 h
Rattus norvegicus [29] = assay: Particle size for the 50th percentile of the cumulative volume distribution in Sprague-Dawley rat at 50 mg/kg, IM […]; type: ADME, organism-based; details: in vivo
[30] = tested on: Respiratory syncytial virus; assay: Antiviral activity against RSV B/18-002094 harboring eGFP infected in human HeLa cells assessed as reduction in virus replication measured after 3 days by laser microscopy; type: functional, organism-based; details: B/18-002094, HeLa, 72 h
[31] = Chromatographic hydrophobicity index, logD of the compound at pH 7.4 by UPLC analysis; type: physicochemical; details: buffer
[32] = tested on: Respiratory syncytial virus; assay: Antiviral activity against RSV A Long infected in PO dosed cotton rat assessed as reduction in viral titer in BALF administered twice day from 1 day prior to infection to 3 days post-infection by plaque assay; type: functional, organism-based; details: human respiratory syncytial virus
[33] = tested on: Respiratory syncytial virus; assay: Antiviral activity against RSV A/18-001989 harboring eGFP infected in human HeLa cells assessed as reduction in virus replication measured after 3 days by laser microscopy; type: functional, organism-based; details: A/18-001989, HeLa, 72 h
[34] = tested on: Respiratory syncytial virus; assay: Antiviral activity against RSV B/14-006938 harboring eGFP infected in human HeLa cells assessed as reduction in virus replication measured after 3 days by laser microscopy; type: functional, organism-based; details: B/14-006938, HeLa, 72 h
[35] = Equilibrium solubility of the compound […] at pH 7 measured after 3 days by LC-MS/MS analysis; type: physicochemical; details: time 3 day
HeLa = assay: Cytotoxicity against human HeLa cells assessed as reduction in cell viability at highest concentration measured after 3 days by ATPlite assay; type: toxicity, cell-based; details: 72 h, time 3 day
[36] = tested on: Respiratory syncytial virus; assay: Antiviral activity against RSV B/11-050703 harboring eGFP infected in human HeLa cells assessed as reduction in virus replication measured after 3 days by laser microscopy; type: functional, organism-based; details: B/11-050703, HeLa, 72 h
[37] = Volume of distribution at steady state in Sprague-Dawley rat at 1 mg/kg, iv by LC-MS/MS analysis; type: ADME, organism-based; details: in vivo, read-out: Vdss

CS(=O)(=O)N1CC2(C1)C(=O)N(Cc1nc3cc(Cl)ccc3n1CCCC(F)(F)F)c1ccccc12
clearance [1]: 18.5 mL/min/kg
clearance [2]: 0.46 mL/min/kg
EC50 [3]: 1.6 nM
Vd [4]: 5.3 L/kg
EC50 [5]: 1.6 nM
Particle size (D50) (Canis familiaris [6]): 5.06 um
EC50 [7]: 1.6 nM
EC50 [8]: 1.6 nM
EC50 [9]: 1.6 nM
EC50 [10]: 1.6 nM
protein-adjusted EC90 [11]: 0.034 µg/mL
bioavailability [12]: 50%
Ka (Canis familiaris [13]): 0 h⁻¹
EC50 [14]: 0.78 nM
solubility thermodynamic at 24 h [15]: < 0.1 µg/mL
hepatocyte CLint [16]: < 1.2 µL/min/1e6 cells
EC50 [17]: 1.6 nM
EC50 [18]: 1.6 nM
EC50 [19]: 1.6 nM
EC50 [20]: 0.088 µg/mL (≈ 0.167 µM)
EC50 [21]: 1.6 nM
EC50 [22]: 1.6 nM
EC50 [23]: 1.6 nM
microsomal CLint at 1 µM [24]: < 7.7 µL/min/mg
EC50 [25]: 1.6 nM
bioavailability [26]: 52%
Ka (Rattus norvegicus [27]): 0 h⁻¹
EC50 [28]: 1.6 nM
Median particle size (D50) (Rattus norvegicus [29]): 6.38 um
EC50 [30]: 1.6 nM
CHI [31]: 3.39
EC50 [32]: 0.026 µg/mL (≈ 0.0493 µM)
EC50 [33]: 1.6 nM
EC50 [34]: 1.6 nM
solubility at 72 h [35]: < 0.04 µM
Activity (HeLa): Non-toxic
EC50 [36]: 1.6 nM
Vd [37]: 4.43 L/kg
